Experimental data: US9314439B2, “Composition and method for muscle repair and regeneration” (Thomas Jefferson University, priority 2010, dated 2016)
“Also recorded” adds a separate entry of the source.

Columns and labels:
[1] = tested on: RXR receptors; settings: cited from earlier work
[2] = tested on: muscle defect in calf or anterior tibial muscles; test: muscle defect mouse model, systemic or local administration of RAR agonist; type: in vivo; settings: for muscle repair: 100 μg/gavage/day at day 8, 10 and 12 from injury, 4 weeks after surgery
Description: Histological Procedures. To inspect muscle tissue structure, samples were fixed in 4% PFA and embedded in paraffin. Five μm serial sections were stained by either H&E (http://www.ihcworld.com/_protocols/special_stains/HE_Mayer.htm) or Masson's trichrome staining solution (http://www.ihcworld.com/_protocols/special_stains/masson_trichrome.htm). To detect adipose tissue, 4% PFA fixed samples were equilibrated in 20% sucrose in PBS, embedded in OCT compound and then sectioned by cryostat. Ten μm cryosections were dried, rehydrated and then stained with Oil-red O (http://www.ihcworld.com/_protocols/special_stains/oil_ red o.htm).
Immuno-Fluorescence. For the detection of various antigens in tissue sections, 5 μm paraffin sections were de-paraffinized, re-hydrated and then treated with 0.1% pepsin in 0.02 N HCl for 15 min at 37° C. Sections were washed three times in PBS-T and blocked in 10% normal goat serum with 0.3% BSA. Sections were incubated with 1st antibody, washed three times with PBS-T and then incubated with 2nd antibody. The list of antigens, antibodies and their dilutions are shown below.
Local and Systemic Administration of RAR Agonist. Systemic administration of RAR agonist was carried out by gavage as described previously (Shimono et al. J. Orthop. Res. 28:271-277, 2010). Local delivery of RAR agonist was done by injecting RAR agonist (dissolved in DMSO) using Hamilton syringe 87943 with 26G needle.
A muscle defect mouse model was used to investigate the muscle repair stimulation by administration of RAR gamma-agonists. A round-shaped defect was created with an electric cautery in calf or anterior tibial muscles in 8 week-old mice resulting in a 2.0 mm×2.0 mm×2.0 mm defect.
Round-shaped defects were created in calf-muscle tissue of 8 weeks old mice as above (one muscle defect/mouse). […] Tissue was collected for histological analysis on day 14.
[…] Tissues were collected for histological analysis at 2 and 4 weeks. Macro-photos of injured muscle tissue collected from control and RAR gamma-agonist (CD1530)-treated mice were taken at 4 weeks after injury.
Histological analysis of skeletal muscle tissue was performed 4 weeks after injury. Serial transverse sections of muscle tissue specimens collected 4 weeks after injury (same samples as discussed directly above) were stained with Masson's trichrome or processed for immuno-staining with antibodies to laminin (an extracellular protein abundant around muscle cells). […] To evaluate and quantify the changes of skeletal muscle tissue structure, images of trichrome-stained serial sections were taken and the relative amounts of muscle fiber, adipose and fibrous tissues were determined in multiple defined areas by ImagePro software. The analyzed areas were 9×9 grids each (about 3×3 mm) that included the original injured site (2×2 mm).
The effects of various retinoid agonists on skeletal muscle repair were examined Macro photographs were taken of muscle injury sites at the 4-week time point.

[3] = tested on: mouse bone marrow-derived mesenchymal stem cell (BMSC) cultures; test: myogenic differentiation in mouse BMSC cultures; type: cell-based; settings: 7 days, 5% FBS DMEM
Protocol: MSCs were isolated as described previously (ref) with minor modification. Briefly, mouse bone marrow cells (1−2×10^7) harvested from long bones of 4-6 weeks old mice were seeded onto 100-mm culture dishes, incubated for 3 hours at 37° C. to allow attachment of adherent cells, and then rinsed twice with PBS to remove the nonadherent cells. The bone marrow-derived MSCs formed adherent colonies after 12-15 days of culture. Primary cultures were passed to disperse the colony-forming cells (passage 1). The cells were then subcultured again when they reached 70% confluent. Cells were maintained in α-MEM (Gibco BRL; Invitrogen Corp.) containing 20% fetal bovine serum (FBS; Equitech-Bio Inc.), 2 mM L-glutamine, a combination of 100 U/ml penicillin and 100 μg/ml streptomycin (Biofluids Inc.), and 55 μM 2-mercaptoethanol (Gibco BRL; Invitrogen Corp.) before the first passage. After the first passage, cells were maintained in 10% FBS, α-MEM unless indicated.
The differential effects of retinoid agonists on myogenic differentiation in mouse bone marrow-derived mesenchymal stem cell (BMSC) cultures were investigated. BMSCs were prepared from femurs and tibias of 6 week-old mice by standard methods and maintained in 5% FBS DMEM for 7 days in presence of 0.1% DMSO (vehicle: Control), 1 μM all-trans retinoic acid (RA) (commercially available from Sigma), 1 μM RAR alpha-agonist (obtained from NuRx Pharmaceuticals) or 30 nM RAR gamma-agonist (CD1530, commercially available).

[4] = tested on: mesenchymal stem cell line; test: MyoD and Myf5 immunostaining in mesenchymal stem cell (MSC) cultures; type: cell-based; settings: 100 nM, 10 days
Protocol: Cells from a mesenchymal stem cell line were cultured for 10 days in the presence or absence of RAR gamma-agonist (CD1530, 100 nM). Cultures were processed for immunostaining with MyoD or Myf5 antibodies or stained with nuclear dye DAPI. […] Results indicated an increase in MyoD and Myf5 levels by the RAR gamma-agonist in mesenchymal stem cell (MSC) cultures.

[5] = tested on: RAR subtypes; settings: cited from earlier work
[6] = 100 ng on day 5, 7 and 9, 4 weeks after injury
[7] = 300 μg by gavage on day 8, 10 and 12, 4 weeks after injury
[8] = 300 μg/day by gavage on day 8, 10 and 12, 4 weeks after injury
[9] = 900 μg by gavage on day 8, 10 and 12, 4 weeks after injury

Compound: CC1=C(/C=C/C(C)=C\C=C\C(C)=C\C(=O)O)C(C)(C)CCC1 [9-cis retinoic acid]
- binding to the RXR receptors [1]: natural ligand

Compound: O=C(O)c1ccc2cc(-c3ccc(O)c(C45CC6CC(CC(C6)C4)C5)c3)ccc2c1 [CD437, 6-(4-Hydroxy-3-tricyclo[3.3.1.13,7]dec-1-ylphenyl)-2-naphthalenecarboxylic acid]
- muscle repair [2]: induced effective muscle repair

Compound: O=C(O)c1ccc(-c2ccc3cc(O)c(C45CC6CC(CC(C6)C4)C5)cc3c2)cc1 [CD1530, 4-(6-Hydroxy-7-tricyclo[3.3.1.13,7]dec-1-yl-2-naphthalenyl)benzoic acid]
- formation of elongated multinucleated muscle cells ([3]; 30 nM): Many elongated multinucleated muscle cells formed
- HE histology of muscle defect ([2]; 100 ng on day 1, 3, 5, 7 and 9, 4 weeks after injury): decreased adipose and fibrous scar tissue formation but left a large indentation
- HE histology of muscle defect ([2]; 100 ng on day 1, 3 and 5, 4 weeks after injury): decreased adipose and fibrous scar tissue formation but left a large indentation
- indentation at muscle defect [2, 6]: much reduced indentation
- quality and amount of newly formed muscle tissue [2, 6]: best
- repair of muscle defects after local administration ([2]; 3 μg injected subcutaneously around the injury site on day 8 and 10, 4 weeks): almost completely repaired
- macroscopic appearance of injury site [2, 7]: almost no visible sign of the original defect; also recorded: essentially invisible
- tissue composition (relative amounts of muscle fiber, adipose and fibrous tissues, ImagePro) [2, 7]: largely restored the tissue composition; also recorded: almost normal
- anti-laminin staining of repair tissue [2, 8]: stained strongly with anti-laminin antibodies
- repair of muscle injury (Masson's trichrome sections) [2, 8]: almost completely repaired
- amount of adipose and fibrous tissue (histo-morphometric analysis, ImagePro) ([2]; Day 5-9 treated group, Masson's trichrome, FIG. 6): least amount of adipose and fibrous tissue among all injured groups
- histological analysis of muscle defect ([2]; anterior tibial muscle, 300 μg/day by gavage on day 8, 10 and 12, 2 and 4 weeks): filled with muscle fibers aligned along the major longitudinal axis of the anterior tibial muscle
- myosin heavy chain (MHC) immunostaining of defect site ([2]; calf muscle, 300 μg/day by gavage on day 8, 10 and 12, day 14): many of these cells were MHC positive
- histology of muscle defect site ([2]; calf muscle, 300 μg/day by gavage on day 8, 10 and 12 after injury, day 14): filled with many elongated muscle-like cells
- HE histology of muscle defect ([2]; treated at days 1-3, 4 weeks after injury): decreased adipose and fibrous scar tissue formation but left a partial defect
- HE histology of muscle defect ([2]; treated at days 5-7, 4 weeks after injury): completely filled with newly generated muscle fibers
- Myf5 immunostaining [4]: clearly present
- MyoD immunostaining [4]: clearly present

Compound: CC1(C)CCC(C)(C)c2c1cc(C(=O)Nc1cc(F)c(C(=O)O)c(F)c1)c(O)c2Cl [NRX195183]
- formation of elongated multinucleated muscle cells ([3]; 1 μM): formed only in RAR gamma-agonist treated cultures
- macroscopic appearance of injury site [2, 9]: still clearly visible as large whitish spots
- tissue composition (histomorphometric quantification) [2, 9]: did not improve tissue composition

Compound: CC1(C)CCC(C)(C)c2cc(Cn3cccn3)c(/C=C/c3ccc(C(=O)O)cc3)cc21 [Palovarotene, 4-[(E)-2-[5,6,7,8-Tetrahydro-5,5,8,8-tetramethyl-3-(1H-pyrazol-1-ylmethyl)-2-naphthalenyl]-ethenyl]-benzoic acid]
- muscle repair [2]: induced effective muscle repair

Compound: CC1=C(/C=C/C(C)=C/C=C/C(C)=C/C(=O)O)C(C)(C)CCC1 [RA, all-trans retinoic acid]
- formation of elongated multinucleated muscle cells ([3]; 1 μM): formed only in RAR gamma-agonist treated cultures
- binding to the RXR receptors [1]: does not bind
- fibrous tissue area ([2]; 300 μg by gavage on day 8, 10 and 12, 4 weeks): significant increase of fibrous tissue area
- macroscopic appearance of injury site [2, 7]: still clearly visible as large whitish spots
- muscle fiber area ([2]; 300 μg by gavage on day 8, 10 and 12, 4 weeks, control 33%, normal 90%): 54%
- binding affinity to the three RAR subtypes [5]: approximately equal affinity
